Values quoted from earlier work in patent US20250231185A1, “Coronavirus T Cell Epitopes, Megapools and Uses Thereof” (La Jolla Institute for Immunology, priority 2021, published 2025).
Where two headings read alike, the source gives them in different places.

System: CD8+ T cells
Conditions: cited from earlier work
[1] = T cell type (CD4 or CD8) recognizing the SARS-CoV-2 epitope
[2] = T cell subset (CD4 or CD8) recognizing the SARS-CoV-2-derived epitope
[3] = SARS-CoV-2 Ag S, T cell type recognizing the epitope
[4] = CD8RE megapool peptides (non-spike SARS-CoV-2 antigens), dominant epitope Yes/No
[5] = CD8R (D) megapool epitopes, dominant = recognized by 3 or more donors/different studies
[6] = SARS-CoV-2-derived CD8 epitopes, dominant = recognized by 3 or more donors/different studies

Question: With 926 (KVAGFAKFLK) [compound 926] as the substance, how does the Restriction [1] read?
Answer: CD8

Question: With 649 (ITFDNLKTL) [compound 649] as the substance, how does the Restriction [2] read?
Answer: CD8

Question: For 1354 (LGAENSVAY) [compound 1354], which Restriction [3] is on record?
Answer: CD8

Question: With TTDPSFLGRYM [nsp3 819-829] as the substance, how does the dominance as reported (HLA-A*01:01 epitopes overlapping TTDPSFLGRY, Saini et al.) read?
Answer: particularly dominant

Question: Which Restriction [2] does the source give for 675 (LGDVRETMSY) [compound 675] here?
Answer: CD8

Question: With 3038 (IVGVALLAVF) [compound 3038] as the substance, how does the Dominant [4] read?
Answer: Yes (more dominant epitopes are defined by being recognized by 3 or more donors/different studies)

Question: Which Restriction [3] does the source give for 1457 (QELGKYEQY) [compound 1457] here?
Answer: CD8

Question: With 609 (VVVNAANVY) [compound 609] as the substance, how does the Restriction [2] read?
Answer: CD8

Question: Which Restriction [1] does the source give for 1099 (NPIQLSSYSL) [compound 1099] here?
Answer: CD8

Question: For 2956 (VVDKYFDCY) [compound 2956], which Dominant [4] is on record?
Answer: Yes (more dominant epitopes are defined by being recognized by 3 or more donors/different studies)

Question: For 2921 (RIRGGDGKMK) [compound 2921], which Dominant [4] is on record?
Answer: Yes (more dominant epitopes are defined by being recognized by 3 or more donors/different studies)

Question: With 1710 (FSKQLQQSM) [compound 1710] as the substance, how does the Dominant [5] read?
Answer: Yes (more dominant epitopes are defined by being recognized by 3 or more donors/different studies)

Question: With 1300 (KVGGNYNYLY) [compound 1300] as the substance, how does the Restriction [3] read?
Answer: CD8

Question: For 1435 (TYVPAQEKNFT) [compound 1435], which Restriction [3] is on record?
Answer: CD8

Question: What does the source list for 501 (LSPRWYFYYL) [compound 501]?
Answer: Dominant [6]: Yes (more dominant epitopes are defined by being recognized by 3 or more donors/different studies); Restriction [2]: CD8

Question: With 2998 (QEILGTVSW) [compound 2998] as the substance, how does the Dominant [4] read?
Answer: Yes (more dominant epitopes are defined by being recognized by 3 or more donors/different studies)

Question: For 634 (AHAEETRKL) [compound 634], which Restriction [2] is on record?
Answer: CD8

Question: For 2973 (VYIGDPAQL) [compound 2973], which Dominant [4] is on record?
Answer: Yes (more dominant epitopes are defined by being recognized by 3 or more donors/different studies)

Question: Which Restriction [1] does the source give for 925 (KVAGFAKFL) [compound 925] here?
Answer: CD8

Question: For 3042 (LLYDANYFL) [compound 3042], which Dominant [4] is on record?
Answer: Yes (more dominant epitopes are defined by being recognized by 3 or more donors/different studies)

Question: With 2994 (KLVNKFLAL) [compound 2994] as the substance, how does the Dominant [4] read?
Answer: Yes (more dominant epitopes are defined by being recognized by 3 or more donors/different studies)

Question: With 1400 (LSSTASALGK) [compound 1400] as the substance, how does the Restriction [3] read?
Answer: CD8

Question: For 1436 (FPREGVFV) [compound 1436], which Restriction [3] is on record?
Answer: CD8

Question: For 1015 (SRYWEPEF) [compound 1015], which Restriction [1] is on record?
Answer: CD8

Question: Which Dominant [4] does the source give for 3010 (SLRPDTRYVL) [compound 3010] here?
Answer: Yes (more dominant epitopes are defined by being recognized by 3 or more donors/different studies)

Question: Which results are given for 584 (FGDDTVIEV) [compound 584]?
Answer: Dominant [6]: Yes (more dominant epitopes are defined by being recognized by 3 or more donors/different studies); Restriction [2]: CD8

Question: With 2986 (KVDGVDVEL) [compound 2986] as the substance, how does the Dominant [4] read?
Answer: Yes (more dominant epitopes are defined by being recognized by 3 or more donors/different studies)

Question: Which Restriction [3] does the source give for 1391 (WTFGAGAAL) [compound 1391] here?
Answer: CD8

Question: Which Dominant [5] does the source give for 1746 (SYATHSDKF) [compound 1746] here?
Answer: Yes (more dominant epitopes are defined by being recognized by 3 or more donors/different studies)

Question: For 1799 (VTDTPKGPK) [compound 1799], which Dominant [5] is on record?
Answer: Yes (more dominant epitopes are defined by being recognized by 3 or more donors/different studies)

Question: What does the source list for 629 (TDNYITTY) [compound 629]?
Answer: Dominant [6]: Yes (more dominant epitopes are defined by being recognized by 3 or more donors/different studies); Restriction [2]: CD8

Question: Which Restriction [3] does the source give for 1326 (VLTESNKKF) [compound 1326] here?
Answer: CD8

Question: For 1766 (SAPPAQYEL) [compound 1766], which Dominant [5] is on record?
Answer: Yes (more dominant epitopes are defined by being recognized by 3 or more donors/different studies)

Question: Which Dominant [4] does the source give for 2927 (NPANNAAIVL) [compound 2927] here?
Answer: Yes (more dominant epitopes are defined by being recognized by 3 or more donors/different studies)

Question: With 524 (RTATKAYNV) [compound 524] as the substance, how does the Restriction [2] read?
Answer: CD8

Question: With 694 (ASFDNFKFV) [compound 694] as the substance, how does the Restriction [2] read?
Answer: CD8

Question: Which Restriction [3] does the source give for 1306 (RLFRKSNLK) [compound 1306] here?
Answer: CD8

Question: With 2936 (AQFAPSASAF) [compound 2936] as the substance, how does the Dominant [4] read?
Answer: Yes (more dominant epitopes are defined by being recognized by 3 or more donors/different studies)

Question: Which Restriction [2] does the source give for 653 (HTQVVDMSMTY) [compound 653] here?
Answer: CD8

Question: For 668 (WKYPQVNGL) [compound 668], which Restriction [2] is on record?
Answer: CD8

Question: With 3052 (KLGSLVVRC) [compound 3052] as the substance, how does the Dominant [4] read?
Answer: Yes (more dominant epitopes are defined by being recognized by 3 or more donors/different studies)

Question: For 611 (YENFNQHEV) [compound 611], which Restriction [2] is on record?
Answer: CD8

Question: Which Dominant [4] does the source give for 3008 (FLPRVFSAV) [compound 3008] here?
Answer: Yes (more dominant epitopes are defined by being recognized by 3 or more donors/different studies)

Question: For 1706 (ILLNKHIDA) [compound 1706], which Dominant [5] is on record?
Answer: Yes (more dominant epitopes are defined by being recognized by 3 or more donors/different studies)

Question: With 1310 (FERDISTEIY) [compound 1310] as the substance, how does the Restriction [3] read?
Answer: CD8

Question: Which Dominant [5] does the source give for 1764 (TTDPSFLGRY) [compound 1764] here?
Answer: Yes (more dominant epitopes are defined by being recognized by 3 or more donors/different studies)

Question: What does the source list for 528 (QELIRQGTDYKHW) [compound 528]?
Answer: Dominant [6]: Yes (more dominant epitopes are defined by being recognized by 3 or more donors/different studies); Restriction [2]: CD8

Question: With 2965 (LVLSVNPYV) [compound 2965] as the substance, how does the Dominant [4] read?
Answer: Yes (more dominant epitopes are defined by being recognized by 3 or more donors/different studies)

Question: With 2937 (ASAFFGMSR) [compound 2937] as the substance, how does the Dominant [4] read?
Answer: Yes (more dominant epitopes are defined by being recognized by 3 or more donors/different studies)

Question: Which Restriction [2] does the source give for 526 (RRGPEQTQGNF) [compound 526] here?
Answer: CD8

Question: With 536 (APSASAFFGM) [compound 536] as the substance, how does the Restriction [2] read?
Answer: CD8

Question: Which Restriction [2] does the source give for 621 (ESKPSVEQR) [compound 621] here?
Answer: CD8

Question: Which Restriction [2] does the source give for 578 (EIKESVQTF) [compound 578] here?
Answer: CD8

Question: For 1080 (FIPMDSTVKNY) [compound 1080], which Restriction [1] is on record?
Answer: CD8

Question: With 1312 (NGVEGFNCY) [compound 1312] as the substance, how does the Restriction [3] read?
Answer: CD8

Question: With 3009 (FSAVGNICY) [compound 3009] as the substance, how does the Dominant [4] read?
Answer: Yes (more dominant epitopes are defined by being recognized by 3 or more donors/different studies)

Question: For 2915 (RYRIGNYKL) [compound 2915], which Dominant [4] is on record?
Answer: Yes (more dominant epitopes are defined by being recognized by 3 or more donors/different studies)

Question: Which Dominant [5] does the source give for 1795 (ALRANSAVK) [compound 1795] here?
Answer: Yes (more dominant epitopes are defined by being recognized by 3 or more donors/different studies)

Question: With 1449 (SFKEELDKY) [compound 1449] as the substance, how does the Restriction [3] read?
Answer: CD8

Question: For 1441 (FVSNGTHWF) [compound 1441], which Restriction [3] is on record?
Answer: CD8

Question: For 950 (KIFVDGVPFV) [compound 950], which Restriction [1] is on record?
Answer: CD8

Question: For 941 (HVDTDLTKPY) [compound 941], which Restriction [1] is on record?
Answer: CD8

Question: For 587 (FELDERIDKV) [compound 587], which Restriction [2] is on record?
Answer: CD8

Question: With 641 (TISLAGSYK) [compound 641] as the substance, how does the Restriction [2] read?
Answer: CD8

Question: With 1339 (RVYSTGSNVF) [compound 1339] as the substance, how does the Restriction [3] read?
Answer: CD8

Question: What does the source list for 555 (LPAADLDDF) [compound 555]?
Answer: Dominant [6]: Yes (more dominant epitopes are defined by being recognized by 3 or more donors/different studies); Restriction [2]: CD8

Question: Which Restriction [1] does the source give for 1070 (NTFTRLQSL) [compound 1070] here?
Answer: CD8

Question: For 936 (VRQALLKTV) [compound 936], which Restriction [1] is on record?
Answer: CD8

Question: Which Dominant [5] does the source give for 1778 (TPKYKFVRI) [compound 1778] here?
Answer: Yes (more dominant epitopes are defined by being recognized by 3 or more donors/different studies)

Question: With 1399 (IANQFNSAI) [compound 1399] as the substance, how does the Restriction [3] read?
Answer: CD8

Question: For 1770 (YIFFASFYY) [compound 1770], which Dominant [5] is on record?
Answer: Yes (more dominant epitopes are defined by being recognized by 3 or more donors/different studies)

Question: With 1017 (AMYTPHTVL) [compound 1017] as the substance, how does the Restriction [1] read?
Answer: CD8

Question: Which “positive in donors tested” value (Nelde et al., HLA-A*01:01 restricted) does the source give for TTDPSFLGRY [nsp3 819-828] here?
Answer: 83%

Question: With 1018 (TPHTVLQAV) [compound 1018] as the substance, how does the Restriction [1] read?
Answer: CD8

Question: With 2970 (VYRGTTTYKL) [compound 2970] as the substance, how does the Dominant [4] read?
Answer: Yes (more dominant epitopes are defined by being recognized by 3 or more donors/different studies)

Question: For 1093 (KLMGHFAWW) [compound 1093], which Restriction [1] is on record?
Answer: CD8

Question: Which Restriction [3] does the source give for 1376 (IYKTPPIKDF) [compound 1376] here?
Answer: CD8

Question: Which Restriction [1] does the source give for 969 (ARLYYDSMSY) [compound 969] here?
Answer: CD8

Question: Which Dominant [5] does the source give for 1728 (LYLQYIRKL) [compound 1728] here?
Answer: Yes (more dominant epitopes are defined by being recognized by 3 or more donors/different studies)

Question: For 535 (FAPSASAFF) [compound 535], which Restriction [2] is on record?
Answer: CD8

Question: With 991 (VRNLQHRLY) [compound 991] as the substance, how does the Restriction [1] read?
Answer: CD8

Question: For 1409 (AEVQIDRL) [compound 1409], which Restriction [3] is on record?
Answer: CD8

Question: With 2901 (SLVKPSFYV) [compound 2901] as the substance, how does the Dominant [4] read?
Answer: Yes (more dominant epitopes are defined by being recognized by 3 or more donors/different studies)

Question: Which Dominant [5] does the source give for 1670 (FLFLTWICL) [compound 1670] here?
Answer: Yes (more dominant epitopes are defined by being recognized by 3 or more donors/different studies)

Question: For 1322 (FELLHAPATV) [compound 1322], which Restriction [3] is on record?
Answer: CD8

Question: For 1772 (STFNVPMEK) [compound 1772], which Dominant [5] is on record?
Answer: Yes (more dominant epitopes are defined by being recognized by 3 or more donors/different studies)

Question: For 948 (TSFGPLVRK) [compound 948], which Restriction [1] is on record?
Answer: CD8

Question: Which Restriction [1] does the source give for 937 (DAMRNAGIV) [compound 937] here?
Answer: CD8
